Experimental data from ChEMBL document CHEMBL4152235, “Synthesis, anionophoric activity and apoptosis-inducing bioactivity of benzimidazolyl-based transmembrane anion transporters” (Eur J Med Chem, 2018).
The source made the active and inactive calls. The rule behind the calls is not given here.

Columns and labels:
HeLa [1] = assay: Cytotoxicity against human HeLa cells assessed as reduction in cell viability at 50 uM after 48 hrs by MTT assay relative to control; format: functional
[2] = Binding affinity to chloride ion at 1.5 x 10^-5M using tetra(n-butyl)ammonium chloride measured after 5 mins by spectrophotometric titration method
MCF7 [3] = assay: Ionophoric activity across human MCF7 cells assessed as chloride ion efflux up to 10 uM after 2 hrs by MQAE dye based fluorescence assay; format: cell-based
HeLa [4] = assay: Induction of apoptosis in human HeLa cells assessed as chromatin condensation at 2.5 uM after 24 hrs by Hoechst 33342 staining based fluorescence microscopic analysis; format: functional, cell-based
HeLa [5] = assay: Cytotoxicity against human HeLa cells assessed as reduction in cell viability up to 10 uM after 12 hrs in absence of chloride by MTT assay; format: functional, cell-based
L02 = assay: Cytotoxicity against human LO2 cells assessed as reduction in cell viability after 48 hrs by MTT assay; format: cell-based; settings: L02, 48 h
[6] = (§1) Ionophoric activity across pyranine dye encapsulated pH 7 egg yolk L-alpha-phosphatidylcholine-based liposomal membranes assessed as chloride ion transport by measuring induction of pH discharge after 20 mins in presence of NaCl loaded external vesicles by fluorescence method
A549 [7] = assay: Cytotoxicity against human A549 cells assessed as reduction in cell viability after 48 hrs by MTT assay; format: functional, cell-based; settings: A549, 48 h
HeLa [8] = assay: Ionophoric activity across human HeLa cells assessed as chloride ion efflux up to 10 uM after 2 hrs by MQAE dye based fluorescence assay; format: cell-based
MCF7 [9] = assay: Cytotoxicity against human MCF7 cells assessed as reduction in cell viability up to 10 uM after 12 hrs in presence of chloride by MTT assay; format: functional, cell-based
[10] = (§2) Ionophoric activity across pyranine dye encapsulated pH 7 egg yolk L-alpha-phosphatidylcholine-based liposomal membranes assessed as chloride ion transport by measuring induction of pH discharge at 1.95 x 10^-3 mol% after 20 mins in presence of RbCl loaded external vesicles by fluorescence method
[11] = Ionophoric activity across pyranine dye encapsulated pH 7 egg yolk L-alpha-phosphatidylcholine-based liposomal membranes assessed as chloride ion transport by measuring induction of pH discharge at 1.95 x 10^-3 mol% after 20 mins in presence of KCl loaded external vesicles by fluorescence method
MCF7 [12] = assay: Cytotoxicity against human MCF7 cells assessed as reduction in cell viability up to 10 uM after 12 hrs in absence of chloride by MTT assay; format: functional, cell-based
[13] = Binding affinity to chloride ion assessed as 1:1 compound-Cl- complex formation at 4.1 mM using tetra(n-butyl)ammonium chloride by ESI MS spectrometric method
[14] = Ionophoric activity across pyranine dye encapsulated pH 7 egg yolk L-alpha-phosphatidylcholine-based liposomal membranes assessed as chloride ion transport by measuring induction of pH discharge at 1.95 x 10^-3 mol% after 20 mins in presence of LiCl loaded external vesicles by fluorescence method
[15] = as §1, with “measuring initial rate constant for” for “measuring”, “discharge at 4.88 x 10^-4 mol%” for “discharge”, “method (reference value: 5.03 +/- 1.02 10^-3/min)” for “method”
[16] = Ionophoric activity across pyranine dye encapsulated pH 7 egg yolk L-alpha-phosphatidylcholine-based liposomal membranes assessed as bromide ion transport by measuring induction of pH discharge at 1.95 x 10^-3 mol% after 20 mins in presence of NaBr loaded external vesicles by fluorescence method
HeLa [17] = assay: Induction of apoptosis in human HeLa cells assessed as chromatin fragmentation at 2.5 uM after 24 hrs by Hoechst 33342 staining based fluorescence microscopic analysis; format: functional, cell-based
HeLa [18] = assay: Cytotoxicity against human HeLa cells assessed as reduction in cell viability after 48 hrs by MTT assay; format: functional, cell-based
[19] = Ionophoric activity across pyranine dye encapsulated pH 7 egg yolk L-alpha-phosphatidylcholine-based liposomal membranes assessed as chloride ion transport by measuring induction of pH discharge after 20 mins in presence of NaCl loaded external vesicles by fluorescence method relative to m-Bimbe
[20] = Ionophoric activity across pyranine dye encapsulated pH 7 POPC-cholesterol-based liposomal membranes assessed as chloride ion transport by measuring induction of pH discharge at 7.81 x 10^-3mol% after 20 mins in presence of NaCl loaded external vesicles by fluorescence method
HeLa [21] = assay: Disruption of mitochondrial membrane potential in human HeLa cells assessed as decrease in ratio of red to green fluorescence at 5 to 10 uM after 24 hrs by JC1 staining based fluorescence microscopic analysis; format: functional, cell-based
HepG2 [22] = assay: Cytotoxicity against human HepG2 cells assessed as reduction in cell viability after 48 hrs by MTT assay; format: functional, cell-based; settings: HepG2, 48 h
MCF7 [23] = assay: Cytotoxicity against human MCF7 cells assessed as reduction in cell viability at 50 uM after 48 hrs by MTT assay relative to control; format: functional; settings: MCF7, 48 h
[24] = as §2, with “measuring initial rate constant for” for “measuring”, “3.91” for “1.95”, “NaCl” for “RbCl”, “method (reference value: 5.03 +/- 1.02 10^-3/min)” for “method”
[25] = Ionophoric activity across lucigenin probe encapsulated pH 7 egg yolk L-alpha-phosphatidylcholine-based large unilamellar vesicles loaded with Na2SO4 assessed as chloride ion efflux at 7.81 x 10^-3mol% after 20 mins in presence of NaCl loaded external vesicles by fluorescence method
[26] = as §1, with “measuring initial rate constant for” for “measuring”, “discharge at 9.77 x 10^-4 mol%” for “discharge”, “method (reference value: 5.03 +/- 1.02 10^-3/min)” for “method”
HeLa [27] = assay: Ionophoric activity across human HeLa cells assessed as chloride ion efflux at 10 uM after 3 hrs by acridine orange staining based fluorescence microscopic analysis; format: cell-based
HeLa [28] = assay: Induction of apoptosis in human HeLa cells assessed as formation of bean shaped nuclei at 2.5 uM after 24 hrs by Hoechst 33342 staining based fluorescence microscopic analysis; format: functional, cell-based
[29] = Ionophoric activity across lucigenin probe encapsulated pH 7 egg yolk L-alpha-phosphatidylcholine-based large unilamellar vesicles loaded with Na2SO4 assessed as chloride ion efflux at 7.81 x 10^-3mol% after 20 mins in presence of NaCl/Na2SO4 loaded external vesicles by fluorescence method
[30] = Ionophoric activity across pyranine dye encapsulated pH 7 egg yolk L-alpha-phosphatidylcholine-based liposomal membranes assessed as iodide ion transport by measuring induction of pH discharge at 1.95 x 10^-3 mol% after 20 mins in presence of NaI loaded external vesicles by fluorescence method
HeLa [31] = assay: Induction of apoptosis in human HeLa cells assessed as formation of apoptotic bodies at 2.5 uM after 24 hrs by Hoechst 33342 staining based fluorescence microscopic analysis; format: functional, cell-based
[32] = Ionophoric activity across pyranine dye encapsulated pH 7 egg yolk L-alpha-phosphatidylcholine-based liposomal membranes assessed as nitrate ion transport by measuring induction of pH discharge at 1.95 x 10^-3 mol% after 20 mins in presence of NaNO3 loaded external vesicles by fluorescence method
HeLa [33] = assay: Cytotoxicity against human HeLa cells assessed as reduction in cell viability up to 10 uM after 12 hrs in presence of chloride by MTT assay; format: functional, cell-based
HepG2 [34] = assay: Cytotoxicity against human HepG2 cells assessed as reduction in cell viability at 50 uM after 48 hrs by MTT assay relative to control; format: functional; settings: HepG2, 48 h
[35] = as §2, with “measuring initial rate constant for” for “measuring”, “7.81” for “1.95”, “NaCl” for “RbCl”, “method (reference value: 5.03 +/- 1.02 10^-3/min)” for “method”
[36] = as §2, with “measuring initial rate constant for” for “measuring”, “NaCl” for “RbCl”, “method (reference value: 5.03 +/- 1.02 10^-3/min)” for “method”
[37] = Ionophoric activity across pyranine dye encapsulated pH 7 egg yolk L-alpha-phosphatidylcholine-based liposomal membranes assessed as chloride ion transport by measuring induction of pH discharge at 1.95 x 10^-3 mol% after 20 mins in presence of CsCl loaded external vesicles by fluorescence method
A549 [38] = assay: Cytotoxicity against human A549 cells assessed as reduction in cell viability at 50 uM after 48 hrs by MTT assay relative to control; format: functional; settings: A549, 48 h
[39] = Ionophoric activity across pyranine dye encapsulated pH 7 egg yolk L-alpha-phosphatidylcholine-based liposomal membranes assessed as chloride ion transport by measuring induction of pH discharge at 1.95 x 10^-3 mol% after 20 mins in presence of NaCl loaded external vesicles by fluorescence method
MCF7 [40] = assay: Cytotoxicity against human MCF7 cells assessed as reduction in cell viability after 48 hrs by MTT assay; format: functional, cell-based; settings: MCF7, 48 h

Ka [2]: 7.53 ×10³ /M
EC50 [6]: 3.76 ×10⁻³ mol%
EC50 ([6]; read-out: EC50): 0.05 µM
Activity [10]: Active
Activity [11]: Active
Activity [13]: Active
Activity [14]: Active
K [15]: 2.11 ×10⁻² /min
Activity [16]: inactive
fold change (FC) [19]: 1720
Activity [20]: inactive
K [24]: 1.33 ×10⁻¹ /min
Activity [25]: inactive
K [26]: 4.08 ×10⁻² /min
Activity [29]: inactive
Activity [30]: inactive
Activity [32]: inactive
K [35]: 1.87 ×10⁻¹ /min
K [36]: 8.14 ×10⁻² /min
Activity [37]: Active
Activity [39]: Active
Compound: O=[N+]([O-])c1cc(-c2nc3ccc(C(F)(F)F)cc3[nH]2)cc(-c2nc3ccc(C(F)(F)F)cc3[nH]2)c1
inhibition at 50 µM (HeLa [1]): 94.9%
Activity (MCF7 [3]): Active
Activity (HeLa [4]): Active
Activity (HeLa [5]): Active
IC50 (L02): 3.7 µM
IC50 (A549 [7]): 3.8 to 3.9 µM
Activity (HeLa [8]): Active
Activity (MCF7 [9]): Active
Activity (MCF7 [12]): Active
Activity (HeLa [17]): Active
IC50 (HeLa [18]): 1.9 µM
Activity (HeLa [21]): Active
IC50 (HepG2 [22]): 4.1 µM
inhibition at 50 µM (MCF7 [23]): 99.2%
Activity (HeLa [27]): Active
Activity (HeLa [28]): Active
Activity (HeLa [31]): Active
Activity (HeLa [33]): Active
inhibition at 50 µM (HepG2 [34]): 101%
inhibition at 50 µM (A549 [38]): 100%
IC50 (MCF7 [40]): 9.4 to 9.7 µM
